Source: article PMC12627862, “Therapeutic targeting of endothelial calcium signaling accelerates the resolution of lung injury” (Signal Transduction and Targeted Therapy, 2025)
Where two headings read alike, the source gives them in different places. Starred links: 1 amine or outer side, 2 acyl side, 3 side chain; linkers in the order of their positions; H or OH if unused. Positions of bridges follow the written chain, without caps; N, C: chain ends. Non-standard residues stand in square brackets, D forms with d. Residues, ends and D or L forms follow the SMILES beside them. *: point of attachment. Leu(4,5-dehydro) = C=C(C)C[C@H](N)C(=O)O; Oic = O=C(O)[C@@H]1C[C@@H]2CCCC[C@@H]2N1; d(tBuAla) = CC(C)(C)C[C@@H](N)C(=O)O; dVal(3-OH) = CC(C)(O)[C@@H](N)C(=O)O; tBuAla = CC(C)(C)C[C@H](N)C(=O)O; R5 = C=CCCC[C@@](C)(N)C(=O)O; S5 = C=CCCC[C@](C)(N)C(=O)O; X1 = O=C(CC(O)CN[*:1])[*:2]; 4Amb = NCc1ccc(C(=O)O)cc1; X3 = NCC(O)CC(=O)*

Tests used:
[1] = Aggregation / solubility at 1 mM; format: physicochemical; conditions: summary calls it solubility at 1mM
Description: (§1) The solubilities of the synthesized compounds were determined experimentally (Supplementary Table 2). Most compounds were highly soluble at a 1 mM concentration; however, some compounds tended to form aggregates. These compounds were excluded from further studies. In addition, we experimentally determined the lipophilicity of each compound, logP(oct/wat)=log(soluteoct/solutewat ), which is the partition coefficient of a compound between aqueous (water) and lipophilic (octanol) phases (Supplementary Table 2).

[2] = Lipophilicity of peptides, logP(oct/wat); format: physicochemical
Description: as §1
Lipophilicity of peptides. Two separate solutions were obtained: an aqueous phosphate buffer with saturated n-octanol, and an n-octanol solution with saturated phosphate buffer. Peptides were then dissolved and diluted in the phosphate buffer. Different partitions were then made with different n-octanol to water ratio before shaking for an hour at room temperature. The aqueous phase and n-octanol were allowed to equilibrate, and each phase was extracted and analyzed for peptide concentrations. The ratio of peptide concentration in n-octanol to that in water is expressed as log(P).

[3] = biological target: EB3 interactions with IP3R3-GFP (Homo sapiens, UniProt Q9UPY8); assay: Competitive binding: inhibition of EB3 interaction with IP3R3-GFP in vitro; format: biochemical; conditions: 250 nM
Description: We tested the efficacy of twenty-three compounds in inhibiting EB3 interactions with IP3R3-GFP via an in vitro approach developed by us[12],[13]. […] Guided by NMR studies, we predicted the binding pose of 109 to EB3 via AutoDock Vina[13],[24],[25].

[4] = test system: human primary microvascular lung endothelial cells (HLMVECs); assay: Peptide uptake in endothelial cells; format: cell-based
Description: We next analyzed the cell-penetrating properties of the selected compounds, hereafter referred to as vascular therapeutics (VT). The rate of uptake of 5’6-FAM (fluorescein)-labeled compounds by human primary microvascular lung endothelial cells (HLMVECs) was determined via confocal fluorescence live-cell imaging. FAM-labeled Myr-EBIN[13] and fluorescein alone were used as positive and negative controls, respectively. The t½ uptake and maximal uptake were determined from changes in the integrated fluorescence intensity over a 30 min period (Fig. 2a and Supplementary Fig. 1a). […] Like Myr-EBIN, compounds VT-107, -108 and -109 presented the highest uptake rates of 92.5 ± 5.0%, 82.5 ± 2.8% and 94.7 ± 4.9%, respectively, whereas the linear compound VT-101 was taken up less efficiently, with an average uptake of 58.4 ± 2.7% (Fig. 2a). […] The t½ uptake, however, varied between the tested compounds (Fig. 2b). The stapled compounds presented the shortest t½ uptake, whereas the linear compounds presented the longest t½ (Fig. 2b).
Peptide uptake in endothelial cells. The rate of peptide uptake by primary human microvascular endothelial cells was measured using 5’6FAM (fluorescein)-labeled peptides and confocal fluorescence live-cell imaging, with fluorescein alone used as a negative control. Changes in intracellular fluorescence for each peptide were monitored over time, and saponin, a detergent, was added at the end of the experiment to induce full uptake of the tested peptides by endothelial cells. The fluorescence intensity inside the cells was tracked over time, and the half-time uptake (t1/2) and maximum uptake were calculated.

[5] = Stability of selected EB3 inhibitors in human blood plasma; format: in vitro ADME
Description: Supplementary Table 3. Stability of selected EB3 inhibitors in human blood plasma. The indicated inhibitors were incubated with human plasma at 37 °C and samples were taken at the indicated time points. Plasma proteins were precipitated with ice-cold perchloric acid (60%); the concentration of compounds was measured in supernatant using a liquid chromatography-tandem mass spectrometry (LC-MS/MS). See also Figures 1 and 2.

[6] = Stability at various storage conditions; format: physicochemical; conditions: for amount of peptide remaining after storage: phosphate-buffered sterile saline, 8 days, LC-MS/MS
Description: Stability assay of peptides in various storage conditions. Peptides were dissolved and stored in phosphate-buffered sterile saline at -20, 4, 37, and 60°C for 8 days. The amount of peptide remaining after the study was analyzed by LC-MS/MS.
Supplementary Table 5. Stability of selected compounds at various storage conditions. Preliminary accelerated storage stability at various temperature conditions for the selected inhibitors was tested in phosphate-buffered sterile saline at -20 °C, 4 °C, 37 °C and 60 °C for 8 days. See also Figures 1 and 2.

EB3 interactions with IP3R3-GFP, sequence (Q9UPY8 whole entry): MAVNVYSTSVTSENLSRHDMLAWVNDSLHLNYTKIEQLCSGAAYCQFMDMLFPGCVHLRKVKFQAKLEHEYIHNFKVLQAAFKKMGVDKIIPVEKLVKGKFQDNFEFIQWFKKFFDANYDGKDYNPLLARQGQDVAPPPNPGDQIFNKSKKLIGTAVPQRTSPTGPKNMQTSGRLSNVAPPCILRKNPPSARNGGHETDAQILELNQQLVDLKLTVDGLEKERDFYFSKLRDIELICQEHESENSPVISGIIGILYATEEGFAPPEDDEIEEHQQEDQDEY

Row | logD [2] | half-time uptake t1/2 [4] | remaining at 1.5 h ([5]; human, plasma) | remaining at 20 h ([5]; human, plasma) | storage stability [6] | SMILES | Aggregation at 1mM [1] | inhibition at 0.25 µM [3] | penetration of the cell membrane [4] | logD ([2]; shake-flask n-octanol/phosphate buffer, mutually saturated, shaken 1 hour at room temperature, read-out: Log P (Octanol/Water)) | uptake, percentage of the maximal values obtained following saponin treatment ([4]; 5’6-FAM-labeled compounds, HLMVECs, confocal live-cell imaging over 30 min, mean ± SEM, n = 16–45 cells per group) | half-time uptake t1/2 ([4]; 5’6-FAM-labeled compounds, HLMVECs, confocal live-cell imaging, n = 3 independent experiments) | penetration of the cell membrane ([4]; 5’6-FAM-labeled compounds, HLMVECs, no cell internalization signal) | remaining at 1.5 h ([5]; human plasma, 37 °C, 1.5 hr, perchloric acid (60%) precipitation, LC-MS/MS, read-out: compound remaining in human plasma) | remaining at 20 h ([5]; human plasma, 37 °C, 20 hr, perchloric acid (60%) precipitation, LC-MS/MS, read-out: compound remaining in human plasma) | amount of peptide remaining after storage ([6]; 4 °C) | amount of peptide remaining after storage ([6]; 37 °C) | amount of peptide remaining after storage ([6]; 60 °C) | amount of peptide remaining after storage ([6]; -20 °C)
1 | 0.52 | 9.58 ± 0.09 min | 87% | 85% | stable | CC(C)(C)C[C@H](NC(=O)CC(O)CNC(=O)[C@@H]1C[C@@H]2CCCC[C@@H]2N1C(=O)[C@H](CC(C)(C)C)NC(=O)c1ccc(CNC(=O)[C@H](NC(=O)[C@H](N)Cc2ccccc2)C(C)(C)O)cc1)C(=O)O (stereo partly drawn) [compound 101, (2S)-2-(4-((2S,3aS,7aS)-1-((S)-2-(4-(((R)-2-((R)-2-amino-3-phenylpropanamido)-3-hydroxy-3-methylbutanamido)methyl)benzamido)-4,4-dimethylpentanoyl)octahydro-1H-indole-2-carboxamido)-3-hydroxybutanamido)-4,4-dimethylpentanoic acid.] (H-[dF][dVal(3-OH)][4Amb][tBuAla][Oic][X1][tBuAla]-OH) | weak signal | 41% | able to penetrate the cell membrane without the addition of a cell internalization signal | – | – | – | – | – | – | – | – | – | –
2 | – | – | – | – | – | C=C(C)C[C@@H]1NC(=O)[C@](C)(NC(=O)c2ccc(CNC(=O)CC(O)CN)cc2)CCC/C=C\CCC[C@@](C)(C(=O)N[C@H](CC(C)(C)C)C(=O)O)NC(=O)CC(O)CNC(=O)[C@@H]2C[C@@H]3CCCC[C@@H]3N2C1=O (stereo partly drawn) [compound 107, (2R)-2-((8S,17R,20S,22aS,26aS,27aS,Z)-17-(4-((4-amino-3-hydroxybutanamido)methyl)benzamido)-4-hydroxy-8,17-dimethyl-20-(2-methylallyl)-1,6,18,21-tetraoxo 2,3,4,5,6,7,8,9,10,11,14,15,16,17,18,19,20,21,22a,23,24,25,26,26a,27,27a-hexacosahydro-1H-[1,4,7,12]tetraazacyclotricosino[4,5-a]indole-8-carboxamido)-4,4-dimethylpentanoic acid] ({X3-4Amb}-[R5][Leu(4,5-dehydro)][Oic][X1][S5][d(tBuAla)]-OH; staple (Z) 1-5) | weak signal | 65% | – | 0.51 | 92.5 ± 5.0% | 0.21 ± 0.40 min | able to penetrate the cell membrane without the addition of a cell internalization signal | 87% | 65% | 88% | 85% | 85% | 94%
